Data from patent US20090143279A1 (priority 2007, published 2009).
Read-outs that look alike come from different tables or passages of the source.

How the values were obtained:
OXPHOS gene expression = type: cell-based, mouse; conditions: for GE-HTS (composite Z-score): normalized score vs mock-treated (DMSO) wells
cytochrome c = type: cell-based, mouse; conditions: for cyt c (composite Z-score): normalized score vs mock-treated (DMSO) wells
[1] = tested on: cellular dehydrogenase activity; conditions: for MTT (composite Z-score): normalized score vs mock-treated (DMSO) wells
C2C12 myotubes = conditions: for Viability (composite Z-score): normalized score vs mock-treated (DMSO) wells
reactive oxygen species = type: cell-based, mouse; conditions: for ROS (composite Z-score): normalized score vs mock-treated (DMSO) wells
nuOXPHOS transcripts = type: cell-based, mouse; conditions: for nucOX (composite Z-score): normalized score vs mock-treated (DMSO) wells
[2] = tested on: mitochondrial membrane potential; type: cell-based, mouse; conditions: for ΔΨm (composite Z-score): normalized score vs mock-treated (DMSO) wells
mtOXPHOS transcripts = type: cell-based, mouse; conditions: for mitoOX (composite Z-score): normalized score vs mock-treated (DMSO) wells
[3] = 20 μM, composite Z-score vs DMSO
[4] = composite Z-score vs DMSO, Conc 20 μM
[5] = composite Z-score vs DMSO wells, Conc 20 μM
[6] = normalized composite Z-score vs mock-treated (DMSO) wells, Conc 20 μM
[7] = composite Z-score vs mock-treated (DMSO) wells, Conc 20 μM
[8] = composite Z-score vs DMSO, Conc 8.66 μM

**Q.** `CC(=O)Oc1ccccc1C(=O)Oc1ccccc1C(=O)O` [acetylsalicylsalicylic acid] was tested. Which “GE-HTS (composite Z-score)” value (OXPHOS gene expression; Conc 13.32 μM) did it give?
**A.** −0.301

**Q.** And the “cyt c (composite Z-score)” value (cytochrome c; Conc 13.32 μM)?
**A.** −0.200

**Q.** And the “MTT (composite Z-score)” value ([1]; Conc 13.32 μM)?
**A.** −1.621

**Q.** And the “Viability (composite Z-score)” value (C2C12 myotubes; Conc 13.32 μM)?
**A.** −0.840

**Q.** What about the “ROS (composite Z-score)” value (reactive oxygen species; Conc 13.32 μM) of the same compound?
**A.** 0.399

**Q.** And the “nucOX (composite Z-score)” value (nuOXPHOS transcripts; Conc 13.32 μM)?
**A.** −0.249

**Q.** What about the “ΔΨm (composite Z-score)” value ([2]; Conc 13.32 μM) of the same compound?
**A.** −0.808

**Q.** What about the “mitoOX (composite Z-score)” value (mtOXPHOS transcripts; Conc 13.32 μM) of the same compound?
**A.** −0.389

**Q.** What does the source list for `Cc1onc(-c2ccccc2Cl)c1C(=O)N[C@@H]1C(=O)N2[C@@H]1SC(C)(C)[C@@H]2C(=O)O` [cloxacillin]?
**A.** GE-HTS (OXPHOS gene expression; [3]): −0.568; cyt c (cytochrome c; [3]): 0.459; MTT [1, 3]: −1.769; Viability (C2C12 myotubes; [3]): −0.395; ROS (reactive oxygen species; [3]): 0.259; nucOX (nuOXPHOS transcripts; [3]): −0.506; ΔΨm [2, 3]: −0.339; mitoOX (mtOXPHOS transcripts; [3]): −0.508

**Q.** How did the GE-HTS (OXPHOS gene expression; [4]) turn out when `CC(=O)O[C@H]1CC[C@@]2(C)[C@H](CC[C@@H]3[C@@H]2CC[C@]2(C)[C@@H](C4=CC(=O)OC4)[C@@H](OC(C)=O)C[C@]32O)C1` [gitoxigenin diacetate] was run?
**A.** −0.594

**Q.** And the cyt c (cytochrome c; [4])?
**A.** 0.684

**Q.** What about the MTT [1, 4] of the same compound?
**A.** −1.077

**Q.** What about the Viability (C2C12 myotubes; [4]) of the same compound?
**A.** 0.187

**Q.** What about the ROS (reactive oxygen species; [4]) of the same compound?
**A.** 0.508

**Q.** What about the nucOX (nuOXPHOS transcripts; [4]) of the same compound?
**A.** −0.649

**Q.** And the ΔΨm [2, 4]?
**A.** −0.792

**Q.** What about the mitoOX (mtOXPHOS transcripts; [4]) of the same compound?
**A.** −0.322

**Q.** Which GE-HTS (OXPHOS gene expression; [5]) does the source give for `O=c1cc(-c2ccccc2)oc2cc(O)cc(O)c12` [chrysin] here?
**A.** −0.137

**Q.** What about the cyt c (cytochrome c) of the same compound?
**A.** 0.920

**Q.** What about the cyt c (cytochrome c; [5]) of the same compound?
**A.** 0.655

**Q.** What about the MTT [1, 5] of the same compound?
**A.** −1.566

**Q.** What about the Viability (C2C12 myotubes; [5]) of the same compound?
**A.** −0.802

**Q.** What about the ROS (reactive oxygen species; [5]) of the same compound?
**A.** 0.949

**Q.** What about the nucOX (nuOXPHOS transcripts; [5]) of the same compound?
**A.** 0.071

**Q.** And the ΔΨm [2, 5]?
**A.** −0.941

**Q.** And the mitoOX (mtOXPHOS transcripts; [5])?
**A.** −0.552

**Q.** Which GE-HTS (OXPHOS gene expression; [6]) does the source give for `COc1ccc(C(=O)c2ccc(O)cc2)c(O)c1O` [2,3,4′-trihydroxy-4-methoxybenzophenone] here?
**A.** −1.557

**Q.** And the cyt c (cytochrome c; [6])?
**A.** 0.378

**Q.** What about the MTT [1, 6] of the same compound?
**A.** −0.475

**Q.** What about the Viability (C2C12 myotubes; [6]) of the same compound?
**A.** −0.403

**Q.** And the ROS (reactive oxygen species; [6])?
**A.** −0.472

**Q.** What about the nucOX (nuOXPHOS transcripts; [6]) of the same compound?
**A.** −1.472

**Q.** And the ΔΨm [2, 6]?
**A.** −1.356

**Q.** And the mitoOX (mtOXPHOS transcripts; [6])?
**A.** −1.476

**Q.** What does the source list for `CC(C)CCC[C@@H](C)C1CC[C@H]2[C@@H]3CCC4CC(=O)CC[C@]4(C)[C@H]3CC[C@]12C` (stereo partly drawn) [cholestanone]?
**A.** GE-HTS (composite Z-score) (OXPHOS gene expression; Conc 20 μM): 0.165; cyt c (composite Z-score) (cytochrome c; Conc 20 μM): 0.272; MTT (composite Z-score) ([1]; Conc 20 μM): −2.192; Viability (composite Z-score) (C2C12 myotubes; Conc 20 μM): −0.208; ROS (composite Z-score) (reactive oxygen species; Conc 20 μM): 1.864; nucOX (composite Z-score) (nuOXPHOS transcripts; Conc 20 μM): 0.147; ΔΨm (composite Z-score) ([2]; Conc 20 μM): −1.065; mitoOX (composite Z-score) (mtOXPHOS transcripts; Conc 20 μM): 0.214

**Q.** For `CC(C)(O)CC[C@@H](O)[C@](C)(O)[C@H]1CC[C@@]2(O)C3=CC(=O)[C@@H]4C[C@@H](O)[C@@H](O)C[C@]4(C)[C@H]3CC[C@]12C` [crustecdysone], which “GE-HTS (composite Z-score)” value (OXPHOS gene expression; Conc 20 μM) is on record?
**A.** 0.354

**Q.** What about the “cyt c (composite Z-score)” value (cytochrome c; Conc 20 μM) of the same compound?
**A.** 0.468

**Q.** What about the “MTT (composite Z-score)” value ([1]; Conc 20 μM) of the same compound?
**A.** −0.545

**Q.** And the “Viability (composite Z-score)” value (C2C12 myotubes; Conc 20 μM)?
**A.** −0.458

**Q.** What about the “ROS (composite Z-score)” value (reactive oxygen species; Conc 20 μM) of the same compound?
**A.** 0.657

**Q.** What about the “nucOX (composite Z-score)” value (nuOXPHOS transcripts; Conc 20 μM) of the same compound?
**A.** 0.487

**Q.** And the “ΔΨm (composite Z-score)” value ([2]; Conc 20 μM)?
**A.** −0.721

**Q.** What about the “mitoOX (composite Z-score)” value (mtOXPHOS transcripts; Conc 20 μM) of the same compound?
**A.** 0.062

**Q.** For `CC(=O)O[C@H]1C[C@@H](OC(C)=O)C(C)(C)C2CC(=O)[C@]3(C)C(CC[C@@]4(C)[C@H](c5ccoc5)OC(=O)[C@H]5O[C@]543)[C@]21C` (stereo partly drawn) [7-deacetoxy-7-oxokhivorin], which GE-HTS (OXPHOS gene expression; [7]) is on record?
**A.** 0.777

**Q.** What about the cyt c (cytochrome c; [7]) of the same compound?
**A.** −0.184

**Q.** And the MTT [1, 7]?
**A.** −0.095

**Q.** What about the Viability (C2C12 myotubes; [7]) of the same compound?
**A.** 0.053

**Q.** What about the ROS (reactive oxygen species; [7]) of the same compound?
**A.** 0.070

**Q.** And the nucOX (nuOXPHOS transcripts; [7])?
**A.** 0.690

**Q.** What about the ΔΨm [2, 7] of the same compound?
**A.** 0.258

**Q.** And the mitoOX (mtOXPHOS transcripts; [7])?
**A.** 0.738

**Q.** For `CC(C)=CCc1c2c(c(O)c3c(=O)c(O)c(-c4ccccc4)oc13)C=CC(C)(C)O2` [sericetin], which GE-HTS (OXPHOS gene expression; [6]) is on record?
**A.** −0.890

**Q.** What about the cyt c (cytochrome c; [6]) of the same compound?
**A.** −0.335

**Q.** What about the MTT [1, 6] of the same compound?
**A.** −1.507

**Q.** What about the Viability (C2C12 myotubes; [6]) of the same compound?
**A.** −0.783

**Q.** What about the ROS (reactive oxygen species; [6]) of the same compound?
**A.** 0.124

**Q.** And the nucOX (nuOXPHOS transcripts; [6])?
**A.** −0.670

**Q.** And the ΔΨm [2, 6]?
**A.** 6.788

**Q.** What about the mitoOX (mtOXPHOS transcripts; [6]) of the same compound?
**A.** −1.132

**Q.** With `O=c1[nH]c2ccccc2n1C1CCN(CCCC(c2ccc(F)cc2)c2ccc(F)cc2)CC1` [pimozide] as the compound, how does the GE-HTS (OXPHOS gene expression; [8]) read?
**A.** −0.548

**Q.** And the GE-HTS (OXPHOS gene expression; [4])?
**A.** 0.722

**Q.** What about the cyt c (cytochrome c; [8]) of the same compound?
**A.** −0.531

**Q.** What about the cyt c (cytochrome c; [4]) of the same compound?
**A.** −0.121

**Q.** What about the MTT [1, 8] of the same compound?
**A.** −0.375

**Q.** What about the MTT [1, 4] of the same compound?
**A.** −0.447

**Q.** What about the Viability (C2C12 myotubes; [8]) of the same compound?
**A.** 0.494

**Q.** What about the Viability (C2C12 myotubes; [4]) of the same compound?
**A.** 0.146

**Q.** What about the ROS (reactive oxygen species; [8]) of the same compound?
**A.** 2.196

**Q.** What about the ROS (reactive oxygen species; [4]) of the same compound?
**A.** 1.432

**Q.** And the nucOX (nuOXPHOS transcripts; [8])?
**A.** −0.438

**Q.** What about the nucOX (nuOXPHOS transcripts; [4]) of the same compound?
**A.** 0.857

**Q.** What about the ΔΨm [2, 8] of the same compound?
**A.** −0.170

**Q.** And the ΔΨm [2, 4]?
**A.** −0.381

**Q.** What about the mitoOX (mtOXPHOS transcripts; [8]) of the same compound?
**A.** −0.648

**Q.** And the mitoOX (mtOXPHOS transcripts; [4])?
**A.** 0.386

**Q.** Which results are given for `C[N+](C)(C)CC(=O)O` [betaine]?
**A.** GE-HTS (OXPHOS gene expression): 0.478; cyt c (cytochrome c): −0.998; MTT [1]: 1.036; Viability (C2C12 myotubes): 0.548; ROS (reactive oxygen species): −0.348; nucOX (nuOXPHOS transcripts): 0.354; ΔΨm [2]: 0.345; mitoOX (mtOXPHOS transcripts): 0.604

**Q.** How did the GE-HTS (OXPHOS gene expression; [6]) turn out when `COc1ccc2c(c1)O[C@H]1c3ccc(OC)cc3OC[C@@H]21` [homopterocarpin] was run?
**A.** −0.918

**Q.** What about the cyt c (cytochrome c; [6]) of the same compound?
**A.** 0.575

**Q.** What about the MTT [1, 6] of the same compound?
**A.** −0.578

**Q.** What about the Viability (C2C12 myotubes; [6]) of the same compound?
**A.** 0.549

**Q.** And the ROS (reactive oxygen species; [6])?
**A.** −0.616

**Q.** What about the nucOX (nuOXPHOS transcripts; [6]) of the same compound?
**A.** −0.713

**Q.** And the ΔΨm [2, 6]?
**A.** −0.306

**Q.** What about the mitoOX (mtOXPHOS transcripts; [6]) of the same compound?
**A.** −1.126
